According to ChEMBL document CHEMBL1140241, “Discovery of new diphenyloxazole derivatives containing a pyrrolidine ring: orally active prostacyclin mimetics. Part 2” (Bioorg Med Chem Lett, 2005):

Tests used:
Canis familiaris = species: Canis familiaris; test: In vitro inhibition of ADP-induced platelet aggregation in dog platelet rich plasma; format: functional; details: Canis lupus familiaris
[1] = In vitro inhibition of ADP-induced platelet aggregation in human platelet rich plasma; format: functional, cell-free
Rattus norvegicus = species: Rattus norvegicus; test: In vitro inhibition of ADP-induced platelet aggregation in rat platelet rich plasma; format: functional
[2] = Area Under Plasma concentration-time curve after peroral administration at a dose of 0.032 mg/kg in dog; format: ADME, organism-based, Canis lupus familiaris; set-up: dose 0.032 mg/kg, route oral; details: po
[3] = In vitro inhibition of ADP-induced platelet aggregation in monkey platelet rich plasma; format: functional; details: Cercopithecidae
[4] = Maximum (peak) plasma drug concentration after peroral administration at a dose of 0.032 mg/kg in dog; format: ADME, organism-based, Canis lupus familiaris; set-up: dose 0.032 mg/kg, route oral; details: po
[5] = Maximum (peak) plasma drug concentration after peroral administration at a dose of 3.2 mg/kg in rat (n=3); format: ADME, organism-based; set-up: dose 3.2 mg/kg, route oral; details: po
[6] = Elimination half-life after intravenous administration at a dose of 0.032 mg/kg in dog; format: ADME, organism-based, Canis lupus familiaris; set-up: dose 0.032 mg/kg, route intravenous; details: in vivo
[7] = Elimination half-life after intravenous administration at a dose of 3.2 mg/kg in rat (n=3); format: ADME, organism-based; set-up: dose 3.2 mg/kg, route intravenous; details: in vivo
[8] = Area under plasma concentration-time curve after peroral administration at a dose of 3.2 mg/kg in rat (n=3); format: ADME, organism-based; set-up: dose 3.2 mg/kg, route oral; details: po
[9] = Total body clearance of drug from the plasma after intravenous administration at 3.2 mg/kg in rat; format: ADME, organism-based; set-up: dose 3.2 mg/kg, route intravenous; details: read-out: CLtot
[10] = Total body clearance of drug from the plasma after intravenous administration at 0.032 mg/kg in dog; format: ADME, organism-based, Canis lupus familiaris; set-up: dose 0.032 mg/kg, route intravenous; details: read-out: CLtot
[11] = Percent oral bioavailability after intravenous administration at 3.2 mg/kg in rat; format: ADME, organism-based; details: in vivo, read-out: Ba
[12] = Percent oral bioavailability of the drug after intravenous administration at 0.032 mg/kg in dog; format: ADME, organism-based, Canis lupus familiaris; details: in vivo, read-out: Ba

| Structure (SMILES) | IC50 [1] [µM] | IC50 (Rattus norvegicus) [µM] | further results |
| --- | --- | --- | --- |
| O=C(O)COc1cccc(C[C@@H]2CCCC=C2c2nc(-c3ccccc3)c(-c3ccccc3)o2)c1 | 0.06 | 1.2 | IC50 (Canis familiaris): 1.3 µM |
| O=C([O-])COc1cccc2c1CCC[C@H]2N1CCC[C@@H]1c1nc(-c2ccccc2)c(-c2ccccc2)o1.[Na+] | 0.019 | 0.63 | AUC [2]: 327 ng·h/mL; IC50 (Canis familiaris): 0.78 µM; IC50 [3]: 0.059 µM; Cmax [4]: 61.2 ng/mL; Cmax [5]: 187 ng/mL; half-life [6]: 2.25 h; half-life [7]: 0.21 h; AUC [8]: 172 ng·h/mL; clearance [9]: 89.2 mL/min/kg; clearance [10]: 1 mL/min/kg; bioavailability [11]: 31%; bioavailability [12]: 66% |
| O=C(O)COc1cccc2c1CCC[C@@H]2N1CCC[C@@H]1c1nc(-c2ccccc2)c(-c2ccccc2)o1 | 0.87 | > 10 |  |
| O=C(O)COc1cccc2c1CCC[C@H]2NCc1nc(-c2ccccc2)c(-c2ccccc2)o1 | 0.19 | 5 |  |
| O=C(O)COc1cccc2c1CCC[C@@H]2N1CCC[C@H]1c1nc(-c2ccccc2)c(-c2ccccc2)o1 | 0.063 | 2.2 |  |
| O=C(O)COc1cccc2c1CCC[C@H]2N1CCC[C@H]1c1nc(-c2ccccc2)c(-c2ccccc2)o1 | 0.64 | > 10 |  |
| CC#CCC(C)[C@H](O)/C=C/[C@@H]1[C@H]2C/C(=C/CCCC(=O)O)C[C@H]2C[C@H]1O (some centres not stated) [ILOPROST] | 0.0025 |  |  |

Now from value to compound, other results behind:

| IC50 [1] [µM] | IC50 (Rattus norvegicus) [µM] | Structure (SMILES) | further results |
| --- | --- | --- | --- |
| 1.4 |  | O=C(O)COc1cccc2c1CCC[C@@H]2OCc1nc(-c2ccccc2)c(-c2ccccc2)o1 |  |
| 1 | > 10 | O=C(O)COc1cccc2c1CCCC2CCc1nc(-c2ccccc2)c(-c2ccccc2)o1 (configuration not stated) |  |
| 0.14 |  | O=C(O)COc1cccc2c1CCC[C@H]2OCc1nc(-c2ccccc2)c(-c2ccccc2)o1 |  |
| 1.5 |  | O=C(O)COc1cccc2c1CCC[C@@H]2NCc1nc(-c2ccccc2)c(-c2ccccc2)o1 |  |
| 0.15 |  | CCC/C(CC1CCc2c(cccc2OCC(=O)O)C1)=N\OC(c1ccccc1)c1ccccc1 (configuration not stated) [AP-227] |  |
